# In patent publication US20160115189A1, “PARASITICIDAL COMPOUNDS, METHODS, AND FORMULATIONS” (ELI LILLY AND COMPANY, priority 2013, published 2016):
# Legend:
# [1] = test system: adult brown dog tick (Rhipicephalus sanguineus); assay: Assay 3: adult brown dog tick infestations on dogs; format: in vivo, Rhipicephalus sanguineus on beagle dogs; settings: for % Efficacy (GM) / Geometric Mean Group Live Parasite Counts: topical spot-on 30 mg/kg
# Procedure: (§1) The therapeutic (knockdown) and residual efficacy of the Example 1 compound, administered topically at a point dose of 30 mg/kg bodyweight, is evaluated against adult brown dog tick (Rhipicephalus sanguineus) and cat flea (Ctenocephalides felis) infestations on dogs. Based on pre-treatment tick retention rates, eight (8) beagle dogs are allocated to one of two treatment groups (n=4 per group): Untreated control group, and Example 1 compound-treated group. Dogs are infested with approximately 50 unfed, adult ticks one day prior to treatment (approximately 50% male and 50% female ticks). On Day 0, dogs are treated with Example 1 compound (50 mg/ml, dissolved in a vehicle solution of propylene carbonate, benzyl alcohol, and isopropyl myristate), applied via topical spot-on to achieve a point dose of 30 mg/kg. On Day 3 (approximately 72 hours after treatment), ticks are counted and removed from all dogs. To evaluate residual activity, dogs are re-infested with ticks on an approximate weekly basis for at least two weeks and up to 4 weeks, with tick counts (and removal) conducted 48 hours after each infestation. Dogs are infested with approximately 100 unfed, adult fleas at weeks 2 and 3 for both groups, concurrently with tick infestation.
# (§2) The total number of live parasites present on each dog is determined for each interval, and this number is transformed using the natural logarithm transformation plus one (Ln count+1); addition of one to each count served to adjust for counts that are zero. Geometric mean (GM) group tick and flea counts are obtained via back-transformation of group mean transformed counts and subtracting one. The negative control group is used for comparison to treated groups for the calculation of percent efficacy (% reduction in live parasite counts). GM percent efficacy of treatments is calculated using the following formula: […]
# [2] = test system: cat flea (Ctenocephalides felis); assay: Assay 3: cat flea infestations on dogs; format: in vivo, Ctenocephalides felis on beagle dogs; settings: for % Efficacy (GM) / Geometric Mean Group Live Parasite Counts: topical spot-on 30 mg/kg
# Procedure: as §1, §2
# [3] = test system: Rhipicephalus sanguineus (Brown dog tick); assay: Assay 4: adult brown dog tick infestations on dogs, descending doses; format: in vivo, Rhipicephalus sanguineus on beagle dogs
# Procedure: as §2
# (§3) The therapeutic (knockdown) and residual efficacy of the Example 1 compound, administered via topical spot-on at descending point doses of 30, 20 and 10 mg/kg, is evaluated against adult tick (Dermacentor variabilis (American dog tick) and Rhipicephalus sanguineus (Brown dog tick)) infestations on dogs. Twenty-four (24) beagle dogs are allocated to either an untreated, negative control group or one of three treated groups (n=6 dogs per group). Dogs are infested with approximately 50 unfed, adult R. sanguineus ticks on Days −1, 5, 12, 19 and 28; dogs are concurrently infested with D. variabilis ticks on Day 12 and Day 28. On Day 0, dogs are treated with the Example 1 compound (50 mg/ml of technical active dissolved in a vehicle solution of propylene carbonate, benzyl alcohol, and isopropyl myristate), applied via topical spot-on in a volume so as to achieve point doses of 30, 20 and 10 mg/kg. Tick counts and classification are conducted on Days 3, 7, 14, 21 and 30. GM percent efficacy of treatments against both tick species is calculated using the formula in Assay 3.
# [4] = test system: Dermacentor variabilis (American dog tick); assay: Assay 4: adult American dog tick infestations on dogs, descending doses; format: in vivo, Dermacentor variabilis on beagle dogs
# Procedure: as §2, §3
# [5] = test system: adult brown tick (Rhipicephalus sanguineus); assay: Assay 5: adult brown tick infestations on dogs; format: in vivo, Rhipicephalus sanguineus on beagle dogs; settings: 10 mg/kg topical spot-on
# Procedure: as §2
# The therapeutic (knockdown) and residual efficacy of the Example 1-4 compounds, when administered via topical spot-on at 10 mg/kg, is evaluated against adult brown tick (Rhipicephalus sanguine us) infestations on dogs. Twenty (20) beagle dogs are allocated to either an untreated, negative control group or one of four treated groups (n=4 dogs per group). Dogs are infested with approximately 50 unfed, adult R. sanguineus ticks on Days −1, 5, 12, 19 and 28. On Day 0, dogs are treated with Example 1-4 compound formulations (each, 50 mg/ml of technical active dissolved in a vehicle solution of propylene carbonate, benzyl alcohol, and isopropyl myristate), applied via topical spot-on in a volume so as to achieve a point dose of 10 mg/kg. Tick counts and classification are conducted on Days 2, 7, 14, 21 and 30. GM percent efficacy of treatments against ticks is calculated using the formula in Assay 3.
# [6] = Assay 3: tolerability in dogs; format: in vivo, beagle dogs; settings: topical spot-on 30 mg/kg
# [7] = Assay 4: tolerability in dogs; format: in vivo, beagle dogs; settings: topical spot-on 30, 20 and 10 mg/kg
# [8] = topical 30 mg/kg, through week 4
# [9] = 10 mg/kg topical spot-on, Day 3, Rs
# [10] = 10 mg/kg topical spot-on, Day 7, Rs
# [11] = 10 mg/kg topical spot-on, Day 14, Rs
# [12] = 10 mg/kg topical spot-on, Day 21, Rs
# [13] = 10 mg/kg topical spot-on, Day 30, Rs
# [14] = 20 mg/kg topical spot-on, Day 3, Rs
# [15] = 20 mg/kg topical spot-on, Day 7, Rs
# [16] = 20 mg/kg topical spot-on, Day 14, Rs
# [17] = 20 mg/kg topical spot-on, Day 21, Rs
# [18] = 20 mg/kg topical spot-on, Day 30, Rs
# [19] = 30 mg/kg topical spot-on, Day 3, Rs
# [20] = 30 mg/kg topical spot-on, Day 7, Rs
# [21] = 30 mg/kg topical spot-on, Day 14, Rs
# [22] = 30 mg/kg topical spot-on, Day 21, Rs
# [23] = 30 mg/kg topical spot-on, Day 30, Rs
# [24] = 10 mg/kg topical spot-on, Day 14, Dv
# [25] = 10 mg/kg topical spot-on, Day 30, Dv
# [26] = 20 mg/kg topical spot-on, Day 14, Dv
# [27] = 20 mg/kg topical spot-on, Day 30, Dv
# [28] = 30 mg/kg topical spot-on, Day 14, Dv
# [29] = 30 mg/kg topical spot-on, Day 30, Dv
compound,measurement,setting,value
"CC[C@H]1CCC[C@H](NC(=O)c2ccco2)[C@@H](C)C(=O)C2=C[C@@H]3[C@@H](C=C[C@@H]4C[C@@H](O[C@@H]5O[C@@H](C)[C@H](OC)C(OC)[C@H]5OC)C[C@@H]34)[C@@H]2CC(=O)O1 (stereo partly drawn) [Example 1, N-((2R,3aS,5aR,5bS,9S,13S,14R,16aS,16bR)-9-ethyl-14-methyl-7,15-dioxo-2-(((2R,3R,5S,6S)-3,4,5-trimethoxy-6-methyltetrahydro-2H-pyran-2-yl)oxy)-2,3,3a,5a,5 b,6,7,9,10,11,12,13,14,15,16a,16b-hexadecahydro-1H-as-indaceno[3,2-d][1]oxacyclododecin-13-yl)furan-2-carboxamide]",residual efficacy against ticks,[1]; [8],> 90%
same,% Efficacy (GM),"[1]; Day 3, Tick",(87.42) %
same,Geometric Mean Group Live Parasite Counts,"[1]; Day 3, Tick",3.95
same,% Efficacy (GM),"[1]; Week 1, Tick",(99.44) %
same,Geometric Mean Group Live Parasite Counts,"[1]; Week 1, Tick",0.19
same,% Efficacy (GM),"[1]; Week 2, Tick",(100) %
same,Geometric Mean Group Live Parasite Counts,"[1]; Week 2, Tick",0.00
same,% Efficacy (GM),"[1]; Week 3, Tick",(100) %
same,Geometric Mean Group Live Parasite Counts,"[1]; Week 3, Tick",0.00
same,% Efficacy (GM),"[1]; Week 4, Tick",(100) %
same,Geometric Mean Group Live Parasite Counts,"[1]; Week 4, Tick",0.00
same,residual efficacy against fleas,[2]; [8],> 90%
same,% Efficacy (GM),"[2]; Week 2, Flea",(91.73) %
same,Geometric Mean Group Live Parasite Counts,"[2]; Week 2, Flea",7.15
same,% Efficacy (GM),"[2]; Week 3, Flea",(91.64) %
same,Geometric Mean Group Live Parasite Counts,"[2]; Week 3, Flea",7.21
same,% Efficacy (GM),[3]; [9],(73.39) %
same,Geometric Mean Group Live Tick Counts,[3]; [9],4.92
same,% Efficacy (GM),[3]; [10],(100) %
same,Geometric Mean Group Live Tick Counts,[3]; [10],0.00
same,% Efficacy (GM),[3]; [11],(97.59) %
same,Geometric Mean Group Live Tick Counts,[3]; [11],0.70
same,% Efficacy (GM),[3]; [12],(96.14) %
same,Geometric Mean Group Live Tick Counts,[3]; [12],0.70
same,% Efficacy (GM),[3]; [13],(90.64) %
same,Geometric Mean Group Live Tick Counts,[3]; [13],1.18
same,% Efficacy (GM),[3]; [14],(84.80) %
same,Geometric Mean Group Live Tick Counts,[3]; [14],2.81
same,% Efficacy (GM),[3]; [15],(100) %
same,Geometric Mean Group Live Tick Counts,[3]; [15],0.00
same,% Efficacy (GM),[3]; [16],(99.58) %
same,Geometric Mean Group Live Tick Counts,[3]; [16],0.12
same,% Efficacy (GM),[3]; [17],(99.32) %
same,Geometric Mean Group Live Tick Counts,[3]; [17],0.12
same,% Efficacy (GM),[3]; [18],(94.12) %
same,Geometric Mean Group Live Tick Counts,[3]; [18],0.74
same,% Efficacy (GM),[3]; [19],(79.13) %
same,Geometric Mean Group Live Tick Counts,[3]; [19],3.86
same,% Efficacy (GM),[3]; [20],(98.92) %
same,Geometric Mean Group Live Tick Counts,[3]; [20],0.12
same,% Efficacy (GM),[3]; [21],(99.10) %
same,Geometric Mean Group Live Tick Counts,[3]; [21],0.26
same,% Efficacy (GM),[3]; [22],(97.55) %
same,Geometric Mean Group Live Tick Counts,[3]; [22],0.44
same,% Efficacy (GM),[3]; [23],(95.94) %
same,Geometric Mean Group Live Tick Counts,[3]; [23],0.51
same,Therapeutic (knockdown) efficacy,"[3]; Day 3, treatments 30, 20 and 10 mg/kg",73-85%
same,Residual efficacy against R. sanguineus,"[3]; through Day 21, all treatments (30, 20, 10 mg/kg)",> 95%
same,Residual efficacy against R. sanguineus,"[3]; through Day 30, 30 mg/kg dose",> 95%
same,% Efficacy (GM),[4]; [24],(99.49) %
same,Geometric Mean Group Live Tick Counts,[4]; [24],0.12
same,% Efficacy (GM),[4]; [25],(95.30) %
same,Geometric Mean Group Live Tick Counts,[4]; [25],1.60
same,% Efficacy (GM),[4]; [26],(97.87) %
same,Geometric Mean Group Live Tick Counts,[4]; [26],0.51
same,% Efficacy (GM),[4]; [27],(97.34) %
same,Geometric Mean Group Live Tick Counts,[4]; [27],0.91
same,% Efficacy (GM),[4]; [28],(98.06) %
same,Geometric Mean Group Live Tick Counts,[4]; [28],0.47
same,% Efficacy (GM),[4]; [29],(97.95) %
same,Geometric Mean Group Live Tick Counts,[4]; [29],0.70
same,Residual efficacy against D. variabilis ticks,"[4]; all doses, both Day 14 and Day 30 intervals",> 95%
same,GM percent efficacy,"[5]; Day 2, R. sanguineus",(68.16)
same,Geometric Mean Group Live Tick Counts,"[5]; Day 2, R. sanguineus",10.03
same,GM percent efficacy,"[5]; Day 7, R. sanguineus",(100)
same,Geometric Mean Group Live Tick Counts,"[5]; Day 7, R. sanguineus",0.00
same,GM percent efficacy,"[5]; Day 14, R. sanguineus",(97.41)
same,Geometric Mean Group Live Tick Counts,"[5]; Day 14, R. sanguineus",0.57
same,GM percent efficacy,"[5]; Day 21, R. sanguineus",(95.27)
same,Geometric Mean Group Live Tick Counts,"[5]; Day 21, R. sanguineus",1.59
same,GM percent efficacy,"[5]; Day 30, R. sanguineus",(67.97)
same,Geometric Mean Group Live Tick Counts,"[5]; Day 30, R. sanguineus",8.40
same,tolerability of treatment,[6],well tolerated
same,tolerability of treatment,[7],well tolerated
